“Also recorded” adds a separate entry of the source.
Legend:
[1] = test system: serum phosphate, urinary fractional excretion of phosphate; experiment: Example 3 trial: serum and urinary phosphate; assay type: in vivo, human; conditions: for mean urinary FEPi over time compared with baseline: by day 7 through day 35; for course of serum phosphate after day 1: through day 35
Procedure: Study visits were on Days 0 (when iron was infused), 1 (24 hours after iron infusion), 7, 14, and 35. The primary objectives were to determine the effect of iron deficiency on cFGF23 and iFGF23 levels and the effect of intravenous iron on iFGF23 and cFGF23 levels.
Randomization occurred centrally via a fax-based system. […] The complete dose was infused over 15 minutes on day 0. […] An initial test dose of 25 mg was administered slowly over 5 minutes.
Laboratory testing of blood and three-hour urine collections was performed at the screening visit and on study days 0 (when iron was infused), 1 (24 hours after iron infusion), 7, 14, and 35 (see e.g., FIG. 2A). Any subject who experienced a reduction in serum phosphate below the normal range after day 0 underwent additional phosphate measurements at 14 day intervals following day 35 until the level returned to the normal reference range. Safety evaluations of all subjects included ascertainment of adverse events, physical examinations at all study visits, and laboratory assessments. Any subject who withdrew from the study received a follow-up phone call to ascertain adverse events 30 days after they received study drug.
The pre-specified primary endpoints were changes in blood and urine markers of phosphate and bone metabolism among the evaluable population, defined as those subjects with baseline and at least one post-randomization set of FGF23 and blood and urinary phosphate levels. Secondary endpoints included the proportion of subjects achieving a hemoglobin increase […] anytime between baseline and day 35, and the change from baseline to highest hemoglobin, ferritin, and TSAT anytime during the 35-day study period. Additional safety endpoints included incidence, severity, and seriousness of adverse events, and incidence of treatment-emergent abnormal clinical laboratory values in the safety population, defined as all subjects who received the study drug regardless of subsequent laboratory testing.
Blood and urine samples were sent to a central laboratory for analysis (Covance Central Laboratory Service, Indianapolis, Ind.). Hemoglobin, blood counts, iron indices, electrolytes, and serum and urinary phosphate and creatinine were measured with standard, automated, multi-analyte techniques. Urinary fractional excretion of phosphate (FEPi) was calculated from the three-hour, morning urine collections as urinary phosphate x serum creatinine/serum phosphate x urinary creatinine. Serum levels of 25-hydroxyvitamin D and 1,25-dihydroxyvitamin D were measured in duplicate by radioimmunoassay (DiaSorin, Stillwater, Minn.) with intra-assay coefficients of variation (CV)<11.6%. Plasma C-terminal FGF23 (cFGF23) was measured in duplicate in EDTA-plasma samples using a human FGF23 immunometric assay capable of detecting both the intact peptide and its C-terminal fragments (Immutopics, San Clemente, Ca) with intra-assay CV≦3.8%. Because cFGF23 testing was performed in parallel with rolling enrollment and follow-up, all cFGF23 assay plates tested combinations of baseline and post-intervention samples from multiple study participants. Serum intact FGF23 (iFGF23) was measured in batches of baseline and post-intervention samples from multiple study participants at study end using an immunometric assay that detects the intact peptide exclusively (Kyowa Medex Company, Shizuoka, Japan) with intra-assay CV<2.7%. Serum hepcidin levels were measured on days 0, 7, and 35 using an enzyme-linked immunosorbent assay (Intrinsic LifeSciences, La Jolla, Calif.) with intra-assay CV≦19%. Urinary amino acids, glucose, albumin, and beta 2 microglobulin were measured to test for the possibility of global proximal tubular dysfunction. Urinary deoxypyridinoline cross link, and serum osteocalcin and bone-specific alkaline phosphatase were measured to assess bone turnover.
Baseline characteristics are presented as mean±standard error for continuous variables and as proportions for categorical variables. […]

[2] = test system: Phosphorus; experiment: VIT-23 study: phosphorus at study visits; assay type: in vivo, human
Procedure: Subjects with a hemoglobin (Hgb) that meets inclusion requirements and no exclusionary criteria will be offered participation in this 5-6 week study.
During the Treatment Phase, all subjects received a maximum dose of 1000 mg of IV iron. […] If no reaction occurred, the remainder of the dose (up to 15 mg/kg or 1000 mg including the test dose) was given as per Investigator. The infusion was given only when resuscitative techniques for the treatment of anaphylactic and anaphylactoid reactions were readily available.
Primary Endpoints included changes in blood and urine markers of phosphate and bone metabolism following IV iron administration. Blood markers include (all performed in morning after 10 hr fast): Serum Phosphate; Serum Potassium; Plasma Fibroblast growth factor 23 via 2nd generation Immutopics C-terminal assay; Serum Vitamin D; 1, 25 dihydroxy Vitamin D (1,25 [OH]2D); 25 hydroxy Vitamin D (250H-D); Serum Osteocalcin; Serum Bone-specific Alkaline phosphatase; Plasma intact Parathyroid hormone; Serum creatinine; Hepcidin; Reticulocyte count; Hemoglobin; Ferritin; Transferrin Saturation (TSAT); and Sample for archive. Urine markers (collected over a 3 hour period in the morning) (ratio of phosphate to creatinine determined to offset inter-patient variability in urine concentration) include: Phosphate; Creatinine; Calcium; Amino acids; Glucose; Albumin; Deoxypyridinoline cross link (Dpd)—a collagen type I cross link that indicates bone resorption; Beta-2-microglobulin; and Sample for archive.
All subjects had laboratory assessments at Screening, Day 0, Day 1 (24 hrs), Day 7, Day 14, and Day 35. Any subject with a change in phosphate value after Day 0 had additional phosphate measurements at 14 day intervals (following Day 35) until the level returned to normal (as defined by the laboratory reference range). Safety evaluation for all subjects included adverse events, physical examination, including vital signs, and laboratory assessments. Three hour urine collections was also performed on Day 0, Day 1 (24 hrs), Day 7, Day 14, and Day 35. Any subject who withdrew from the study will receive a follow up phone call 30 days after they received study drug.
The “baseline” was the value at Day 0 prior to administration of any study drug. The value of “n” for the baseline measurement may have be different at each study visit because the baseline values were assessed only for those individuals with data at the given visit.

[3] = Day 7 after single IV dose up to 1000 mg iron
[4] = Day 14 after single IV dose up to 1000 mg iron
[5] = Day 35 after single IV dose up to 1000 mg iron

Substance | mean urinary FEPi over time compared with baseline [1] | mean urinary fractional excretion of phosphate (FEPi) on day 1 ([1]; in vivo) | serum phosphate within 24 hours after iron administration ([1]; in vivo) | course of serum phosphate after day 1 [1] | Phosphorus, Visit, Mean [2, 3] | Phosphorus, Change to Visit, Max ([2]; Day 7 vs baseline) | Phosphorus, Change to Visit, Mean ([2]; Day 7 vs baseline) | Phosphorus, Change to Visit, Median ([2]; Day 7 vs baseline) | Phosphorus, Change to Visit, Min ([2]; Day 7 vs baseline) | Phosphorus, Visit, Mean [2, 4] | Phosphorus, Change to Visit, Max ([2]; Day 14 vs baseline) | Phosphorus, Change to Visit, Mean ([2]; Day 14 vs baseline) | Phosphorus, Change to Visit, Median ([2]; Day 14 vs baseline) | Phosphorus, Change to Visit, Min ([2]; Day 14 vs baseline) | Phosphorus, Visit, Mean [2, 5] | Phosphorus, Change to Visit, Max ([2]; Day 35 vs baseline) | Phosphorus, Change to Visit, Mean ([2]; Day 35 vs baseline) | Phosphorus, Change to Visit, Median ([2]; Day 35 vs baseline) | Phosphorus, Change to Visit, Min ([2]; Day 35 vs baseline) | also measured
iron dextran [reference compound] | no significant change over time | trended downwards | increased modestly | returned to near baseline levels by day 7 and remained stable for the remainder of the study | 3.55 mg/dL | 1.2 mg/dL | -0.07 mg/dL | -0.1 mg/dL | -0.9 mg/dL | 3.58 mg/dL | 1.4 mg/dL | -0.06 mg/dL | 0.1 mg/dL | -1.5 mg/dL | 3.55 mg/dL | 1.3 mg/dL | -0.08 mg/dL | -0.1 mg/dL | -1.3 mg/dL | –
polynuclear iron (III)-hydroxide 4(R)-(poly-(1→4)-O-α-glucopyranosyl)-oxy-2(R),3(S),5(R),6-tetrahydroxy-hexanoate [FCM] | increased significantly compared with baseline | trended downwards | increased modestly | returning towards normal by day 35; also recorded: transient and asymptomatic reductions | 2.51 mg/dL | 0.7 mg/dL | -0.87 mg/dL | -0.8 mg/dL | -2.3 mg/dL | 3.42 mg/dL | 0.7 mg/dL | -0.92 mg/dL | -0.7 mg/dL | -3.5 mg/dL | 3.92 mg/dL | 1.0 mg/dL | -0.38 mg/dL | -0.2 mg/dL | -1.9 mg/dL | day of nadir in serum phosphate ([1]; FCM subjects stratified by serum phosphate<2.0 mg/dL): 14 days; decrease in serum phosphate by day 7 ([1]; evaluable population): 0.6 mg/dL; decrease in serum phosphate by day 14 ([1]; evaluable population): 0.7 mg/dL; subjects in whom serum phosphate decreased to <2.0 mg/dL ([1]; in vivo): 10 subjects; FEPi in FCM low phosphate subgroup vs the remaining ([1]; stratified analysis, peaked by day 14): increased to a significantly greater extent in the low phosphate subgroup
